Laboratory results: patent publication US20230181601A1, “TREATMENT OF NON-ALCOHOLIC STEATOHEPATITIS (NASH)” (DURECT CORPORATION, priority 2020, published 2023)

Key:
[1] = Metabolite profiling of plasma, urine and feces after intravenous dose; type: in vivo, male Sprague Dawley rats; conditions: intravenous 10 mg/kg
Experimental: (§1) Nine male Sprague Dawley rats (Group 1) were designated for the pharmacokinetic phase, 3 male Sprague Dawley rats (Group 2) for the excretion mass balance phase, and 7 male Sprague Dawley rats (Group 3) and 9 male Long Evans rats (Group 4) for the tissue distribution phase. All animals received a single intravenous dose of [^14C]-25HC3S at 10 mg/kg and a target radioactivity of 225 μCi/kg. Blood samples were collected from all Group 1 animals at approximately 0.083, 0.25, 0.5, 1, 2, 4, 8, 12, 24, 48, and 72 hours post-dose. Urine and feces were collected from all Group 2 animals periodically through 168 hours post-dose. […] Following blood collection, animals were euthanized by CO2 inhalation and carcasses frozen in a dry ice/hexane bath for processing by quantitative whole body autoradiography. Whole blood, plasma, urine, feces, cage rinse, and cage wash were analyzed for total radioactivity by liquid scintillation counting.

[2] = Metabolite profiling of plasma and feces after oral dose; type: in vivo, rats; conditions: 75 mg/kg oral
Description: Radiolabeled components in plasma and feces extracts were profiled and identified using radio-high performance liquid chromatography (HPLC) and high performance liquid chromatography/mass spectrometry (HPLC/MS) methods.

[3] = Excretion mass balance after single intravenous dose; type: in vivo, male Sprague Dawley rats; conditions: 10 mg/kg intravenous, over 168 hours
Description: (§2) The objectives of this study were to determine the plasma pharmacokinetics of [4-^14C]-25HC3S-derived radioactivity in male Sprague Dawley rats, determine the routes of elimination and excretion mass balance of [4-^14C]-25HC3S-derived radioactivity in male Sprague Dawley rats, determine the tissue distribution and tissue pharmacokinetics of [4-^14C]-25HC3S-derived radioactivity using quantitative whole body autoradiography methods in male Sprague Dawley and Long Evans rats following a single intravenous (bolus) dose, and to provide plasma, urine, and fecal homogenate samples for metabolite profiling of [4-^14C]-25HC3S-derived radioactivity.
as §1, with “μCi/kg.” for “μCi/kg. Blood samples were collected from all Group 1 animals at approximately 0.083, 0.25, 0.5, 1, 2, 4, 8, 12, 24, 48, and 72 hours post-dose. Urine and feces were collected from all Group 2 animals periodically through 168 hours post-dose.”

[4] = Tissue distribution by quantitative whole body autoradiography after single intravenous dose; type: in vivo, male Sprague Dawley rats; conditions: 10 mg/kg intravenous
Description: as §2, §1

[5] = Tissue distribution by quantitative whole body autoradiography after single intravenous dose, pigmented rats; type: in vivo, male Long Evans rats; conditions: 10 mg/kg intravenous
Description: as §2
as §1, with “μCi/kg.” for “μCi/kg. Blood samples were collected from all Group 1 animals at approximately 0.083, 0.25, 0.5, 1, 2, 4, 8, 12, 24, 48, and 72 hours post-dose. Urine and feces were collected from all Group 2 animals periodically through 168 hours post-dose.”

[6] = Plasma pharmacokinetics of radioactivity after single intravenous dose; type: in vivo, male Sprague Dawley rats; conditions: 10 mg/kg single intravenous (bolus)
Description: as §2, §1

[7] = Plasma pharmacokinetics of radioactivity after single oral (gavage) dose; type: in vivo, rats; conditions: 75 mg/kg single oral (gavage)
[8] = Excretion mass balance after single oral (gavage) dose; type: in vivo, rats; conditions: 75 mg/kg single oral (gavage)
[9] = Tissue distribution by quantitative whole body autoradiography after single oral (gavage) dose; type: in vivo, male Sprague Dawley rats; conditions: 75 mg/kg oral
[10] = Single oral dose safety and pharmacokinetic study in NASH and healthy subjects; type: in vivo, human
Experimental: The present Example was a randomized, dose ranging, single dose safety and pharmacokinetic study of 25HC3S administered to subjects with NASH and control healthy subjects. […] For each cohort, 10 subjects with NASH were enrolled which were further classified into cirrhotic and non-cirrhotic. Each subject received only one dose of study treatment. The second cohort was dosed after a review of safety and tolerability data from Cohort 1.

[11] = 50 mg single oral dose, Healthy, Geometric Mean
[12] = 50 mg single oral dose, Healthy, Mean
[13] = 50 mg single oral dose, NASH, Geometric Mean
[14] = 50 mg single oral dose, NASH, Mean
[15] = 200 mg single oral dose, Healthy, Geometric Mean
[16] = 200 mg single oral dose, Healthy, Mean
[17] = 200 mg single oral dose, NASH, Geometric Mean
[18] = 200 mg single oral dose, NASH, Mean

For desmosterol sulfate, the “detection in plasma, urine, or feces samples” value [1] was “Neither desmosterol sulfate nor 25-hydroxycholesterol was detected” and the “detection in plasma or feces samples” value [2] was “not found”.

In the case of C[C@H](CCCC(C)(C)O)[C@H]1CC[C@H]2[C@@H]3CC=C4[14CH2][C@@H](OS(=O)(=O)O)CC[C@]4(C)[C@H]3CC[C@]12C [[4-^14C]-25HC3S], the “dose recovered in urine, feces, and cage rinse” value [3] is reported as “approximately 100.2%”, the “recovered radioactivity in feces” value [3] is reported as 83.0% and the “plasma:whole blood AUClast ratio” value [4] is reported as 0.79. For the same compound, the “tissue distribution by QWBA” value [4] was “broadly distributed and detected by quantitative whole body autoradiography in all tissues except the eye (lens)”, the “whole blood AUClast” value ([4]; Group 3) was 25,200 h*ng-equiv./g and the T1/2 in plasma ([4]; QWBA phase) was 44.3 h. For the same compound, the “T1/2 in whole blood” value ([4]; QWBA phase) was 52.2 h, the maximum plasma concentration ([4]; QWBA phase) was 12,400 ng-equiv./g and the “tissue:plasma ratio, liver” value ([4]; calculated using AUClast) was 11.4. For the same compound, the “tissue:plasma ratio, small intestine (wall)” value ([4]; calculated using AUClast) was 7.44, the AUClast in liver ([4]; radioactivity) was ≤ 364,000 hng/g and the “binding to pigmented or non-pigmented skin or the uveal tract” value [5] was “no difference”. For the same compound, the “plasma or whole blood concentrations versus Sprague Dawley rats” value ([5]; first 168 hours postdose) was “no substantial difference”, the “terminal elimination phase T1/2” value ([6]; plasma, PK phase) was 26.6 h and the “mean plasma C0” value ([6]; total radioactivity) was 25,900 ng-equiv./g. The “plasma AUClast” value ([6]; total radioactivity) was 27,900 h*ng-equiv./g.

In the case of C[C@H](CCCC(C)(C)O)[C@H]1CC[C@H]2[C@@H]3CC=C4C[C@@H](O)CC[C@]4(C)[C@H]3CC[C@]12C [M29, 25-hydroxycholesterol], the “detection in plasma, urine, or feces samples” value [1] is reported as “Neither desmosterol sulfate nor 25-hydroxycholesterol was detected”, the “relative observed intensity (ROI) in plasma” value ([2]; 2 hour postdose plasma) is reported as 37% and the “% of total dose in feces” value ([2]; pools 0 to 168 hours post-dose) is reported as 1.9 % of total dose. The concentration at 2 h ([2]; Sprague Dawley, rat, 2 hour postdose plasma) was 1230 ng/g.

For C[C@H](CCCC(C)(C)O)[C@H]1CC[C@H]2[C@@H]3CC=C4CC(OS(=O)(=O)O)CC[C@]4(C)[C@H]3CC[C@]12C (stereo partly shown) [[^14C]-25HC3S], the “terminal elimination phase T1/2” value [7] was 27.3 h, the “plasma AUClast” value ([7]; radioactivity) was 96,400 h.ng equiv./g and the “dose recovered in urine, feces, and cage rinse” value [8] was “approximately 94.5%”. The “recovered radioactivity in feces” value [8] was 94.2%, the “plasma:whole blood AUClast ratio” value [9] was 1.12 and the “skin, thymus, prostate, and pituitary tissue concentrations” value [9] was less than 3000 ng equiv./g. For the same compound, the “tissue Tmax” value [9] was no more than 6 h, the “tissue distribution by QWBA” value [9] was “broadly distributed and detected by quantitative whole body autoradiography in all tissues except the eye (lens)” and the “uveal tract and brain concentrations” value [9] was “approximately 1000 ng equiv./g”. For the same compound, the “whole blood AUClast” value [9] was 127,000 h.ng equiv./g, the “tissue:plasma ratio, adrenal gland” value ([9]; calculated using AUClast) was 6.64 and the “tissue:plasma ratio, liver” value ([9]; calculated using AUClast) was 6.96. The “tissue:plasma ratio, small intestine (wall)” value ([9]; calculated using AUClast) was 15.4.

Work on C[C@H](CCCC(C)(C)O)[C@H]1CC[C@H]2[C@@H]3CC=C4C[C@@H](OS(=O)(=O)[O-])CC[C@]4(C)[C@H]3CC[C@]12C.[Na+] [25HC3S sodium] yielded an AUC0-12 [10, 11] of 496.7 ng·h/mL, an AUC0-last [10, 11] of 450.0 ng·h/mL and an AUCinf [10, 11] of 423.3 ng·h/mL. It also gave a CL/F [10, 11] of 118.11 L/h, a Cmax [10, 11] of 90.946 ng/mL and a T1/2 [10, 11] of 1.889 h. For the same compound, the Tmax [10, 11] was 2.834 h, the AUC0-12 [10, 12] was 528.0 ng·h/mL and the AUC0-last [10, 12] was 477.1 ng·h/mL. The AUCinf [10, 12] was 438.6 ng·h/mL, the CL/F [10, 12] was 122.35 L/h and the Cmax [10, 12] was 93.967 ng/mL. For the same compound, the T1/2 [10, 12] was 1.906 h, the Tmax [10, 12] was 3.008 h and the AUC0-12 [10, 13] was 597.8 ng·h/mL. The AUC0-last [10, 13] was 476.1 ng·h/mL, the AUCinf [10, 13] was 608.3 ng·h/mL and the CL/F [10, 13] was 82.19 L/h. The Cmax [10, 13] was 107.627 ng/mL, the T1/2 [10, 13] was 1.670 h and the Tmax [10, 13] was 2.305 h. It also gave an AUC0-12 [10, 14] of 623.1 ng·h/mL, an AUC0-last [10, 14] of 513.3 ng·h/mL and an AUCinf [10, 14] of 636.1 ng·h/mL. For the same compound, the CL/F [10, 14] was 85.29 L/h, the Cmax [10, 14] was 113.170 ng/mL and the T1/2 [10, 14] was 1.674 h. For the same compound, the Tmax [10, 14] was 2.408 h, the AUC0-12 [10, 15] was 1162.8 ng·h/mL and the AUC0-last [10, 15] was 1172.5 ng·h/mL. It also gave an AUCinf [10, 15] of 1181.2 ng·h/mL, a CL/F [10, 15] of 169.32 L/h and a Cmax [10, 15] of 255.698 ng/mL. For the same compound, the T1/2 [10, 15] was 1.719 h, the Tmax [10, 15] was 2.528 h and the AUC0-12 [10, 16] was 1175.9 ng·h/mL. It also gave an AUC0-last [10, 16] of 1185.7 ng·h/mL, an AUCinf [10, 16] of 1194.3 ng·h/mL and a CL/F [10, 16] of 171.25 L/h. For the same compound, the Cmax [10, 16] was 260.500 ng/mL, the T1/2 [10, 16] was 1.753 h and the Tmax [10, 16] was 2.673 h. The AUC0-12 [10, 17] was 1495.2 ng·h/mL, the AUC0-last [10, 17] was 1539.2 ng·h/mL and the AUCinf [10, 17] was 1411.8 ng·h/mL. The CL/F [10, 17] was 141.66 L/h, the Cmax [10, 17] was 318.582 ng/mL and the T1/2 [10, 17] was 2.196 h. It also gave a Tmax [10, 17] of 2.647 h, an AUC0-12 [10, 18] of 1541.0 ng·h/mL and an AUC0-last [10, 18] of 1581.6 ng·h/mL. For the same compound, the AUCinf [10, 18] was 1428.5 ng·h/mL, the CL/F [10, 18] was 143.19 L/h and the Cmax [10, 18] was 332.700 ng/mL. The T1/2 [10, 18] was 2.511 h and the Tmax [10, 18] was 2.906 h.
